This experiment deals with T1, human CCR6 (Homo sapiens, UniProt P51684).
T1 construct: expressed in transfected cells; host or cells: Ba/F3 cells (mouse pro-B line)
T1 sequence (P51684 1-374): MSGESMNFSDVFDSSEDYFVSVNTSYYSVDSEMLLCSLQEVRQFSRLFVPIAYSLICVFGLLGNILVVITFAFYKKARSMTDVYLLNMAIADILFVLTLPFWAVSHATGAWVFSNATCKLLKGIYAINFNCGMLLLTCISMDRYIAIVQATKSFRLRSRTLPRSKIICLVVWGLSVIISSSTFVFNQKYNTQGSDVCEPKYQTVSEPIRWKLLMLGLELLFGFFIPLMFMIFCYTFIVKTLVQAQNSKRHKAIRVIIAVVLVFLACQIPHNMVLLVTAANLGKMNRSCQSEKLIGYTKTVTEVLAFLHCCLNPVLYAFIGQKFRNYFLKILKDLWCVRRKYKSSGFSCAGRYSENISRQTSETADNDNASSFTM
The experiment in a line: Migration assay (chemotaxis, ChemoTX). The class given is cell-based. Conditions: hCCR6-transfected Ba/F3 cells in human serum, migration to recombinant human CCL20 10 nM, 37° C. 45 minutes; read-out: Potency (IC50 value in the migration assay). The source says:
A chemotaxis assay can be used to determine the efficacy of potential receptor antagonists at blocking the migration mediated through chemokine receptors, such as CCR6. This assay is routinely performed using the ChemoTX® microchamber system with a 5-μm pore-sized polycarbonate membrane. Chemokine receptor-expressing cells are required for such an assay. In this case, Ba/F3 cells (Palacios et al., Nature, 309:126, 1984) transfected with the gene for human CCR6 under control of the CMV promotor were used. To begin such an assay, hCCR6-transfected Ba/F3 cells are first grown for 24 hr in medium supplemented with sodium butyrate, which increases CCR6 transcription via the CMV promotor. The prepared Ba/F3 cells, are collected by centrifugation at 400×g at room temperature, then suspended at 4 million/ml in human serum. The compound being tested is serially diluted from a maximum final concentration of 1 μM (or an equivalent volume of its solvent (DMSO)) and is then added to the cell/serum mixture. Separately, recombinant human CCL20 (MIP-3α/LARC) at its EC50 concentration (10 nM) is placed in the lower wells of the ChemoTX® plate. The 5-μm (pore size) polycarbonate membrane is placed onto the plate, and 20 μL of the cell/compound mixture is transferred onto each well of the membrane. The plates are incubated at 37° C. for 45 minutes, after which the polycarbonate membranes are removed and 5 μl of the DNA-intercalating dye CyQUANT (Invitrogen, Carlsbad, CA) is added to the lower wells. The amount of fluorescence, corresponding to the number of migrated cells, is measured using a Spectrafluor Plus plate reader (TECAN, San Jose, CA).

Experimental findings from patent US12018016B2, “Aryl sulfonyl (hydroxy) piperidines as CCR6 inhibitors” (CHEMOCENTRYX, INC., priority 2021, dated 2024) are described below.

Some results are limits rather than exact numbers.

Turning to `N#Cc1c[nH]c2ncc(-c3ccc(S(=O)(=O)N4CC[C@H](Nc5ccc(C(F)(F)F)cn5)[C@H](O)C4)cc3)cc12` [Example 32, 5-(4-(((3R,4S)-3-hydroxy-4-((5-(trifluoromethyl)pyridin-2-yl)amino)piperidin-1-yl)sulfonyl)phenyl)-1H-pyrrolo[2,3-b]pyridine-3-carbonitrile], the IC50 is 1 to 10 nM.
In the case of `COc1nccc(-c2ccc(S(=O)(=O)N3CC[C@@H](Nc4ccc(C(F)(F)F)cn4)[C@@H](O)C3)cc2)c1C` [Compound 155], the IC50 was < 1 nM.
Consider `NC(=O)c1ncc(-c2ccc(S(=O)(=O)N3CC[C@@H](Nc4ccc(C(F)(F)F)cn4)[C@@H](O)C3)cc2)s1` [Example 42, 5-(4-(((3S,4R)-3-Hydroxy-4-((5-(trifluoromethyl)pyridin-2-yl)amino)piperidin-1-yl)sulfonyl)phenyl)thiazole-2-carboxamide], for which the IC50 is < 1 nM.
In the case of `O=C1NCC[C@@H]1Nc1ccc(-c2ccc(S(=O)(=O)N3CC[C@@H](Nc4ccc(C(F)(F)F)cn4)[C@@H](O)C3)cc2)cn1` [Compound 170], the IC50 is < 1 nM.
Regarding `O=S(=O)(c1ccc(-c2ccnc(N3CC[C@H](O)C3)c2)cc1)N1CC[C@@H](Nc2ccc(C(F)(F)F)cn2)[C@@H](O)C1` [Compound 133], the IC50 was < 1 nM.
As for `COc1c(-c2ccc(S(=O)(=O)N3CC[C@@H](Nc4ccc(C(F)(F)F)cn4)[C@@H](O)C3)cc2)ccnc1C(N)=O` [Compound 182], the IC50 was < 1 nM.
For `CN(C)C(=O)c1cc(-c2ccc(S(=O)(=O)N3CC[C@@H](Nc4ccc(C(F)(F)F)cn4)[C@@H](O)C3)cc2)ccn1` [Example 40, 4-(4-(((3S,4R)-3-Hydroxy-4-((5-(trifluoromethyl)pyridin-2-yl)amino)piperidin-1-yl)sulfonyl)phenyl)-N,N-dimethylpicolinamide], the IC50 was in the range of 1 to 10 nM.
Regarding `Cc1nc2[nH]ccc2c(C)c1-c1ccc(S(=O)(=O)N2CC[C@@H](Nc3ccc(C(F)(F)F)cn3)[C@@H](O)C2)cc1` [Example 45, (3S,4R)-1-((4-(4,6-dimethyl-1H-pyrrolo[2,3-b]pyridin-5-yl)phenyl)sulfonyl)-4-((5-(trifluoromethyl)pyridin-2-yl)amino)piperidin-3-ol], the IC50 was < 1 nM.
On to `N#Cc1cc(C(F)(F)F)cnc1N[C@@H]1CCN(S(=O)(=O)c2ccc(-c3ccnc(C(N)=O)c3)cc2)C[C@@H]1O` [Compound 85, 4-(4-(((3S,4R)-4-((3-cyano-5-(trifluoromethyl)pyridin-2-yl)amino)-3-hydroxypiperidin-1-yl)sulfonyl)phenyl)picolinamide], for which the IC50 is 10 to 1000 nM.
As for `CN(C)C1CN(c2ccc(-c3ccc(S(=O)(=O)N4CC[C@@H](Nc5ccc(C(F)(F)F)cn5)[C@@H](O)C4)cc3)cn2)C1` [Compound 107], the figure is 1 to 10 nM; as for `O=C1NCc2cc(-c3ccc(S(=O)(=O)N4CC[C@@H](Nc5ccc(C(F)(F)F)cn5)[C@@H](O)C4)cc3)ccc2N1` [Example 14, 6-(4-(((3S,4R)-3-hydroxy-4-((5-(trifluoromethyl)pyridin-2-yl)amino)piperidin-1-yl)sulfonyl)phenyl)-3,4-dihydroquinazolin-2(1H)-one], < 1 nM.
With `COc1ccc(-c2ccc(S(=O)(=O)N3CC[C@@H](Nc4ccc(C(F)(F)F)cn4)[C@@H](O)C3)cc2)cn1` [Compound 154], the IC50 is 1 to 10 nM.
As for `N#Cc1n[nH]c2ncc(-c3ccc(S(=O)(=O)N4CC[C@@H](Nc5ccc(C(F)(F)F)cn5)[C@@H](O)C4)cc3)cc12` [Compound 193], the IC50 is < 1 nM.
Take `NC(=O)c1cncc(-c2ccc(S(=O)(=O)N3CC[C@@H](Nc4ccc(C(F)(F)F)cn4)[C@@H](O)C3)cc2)c1` [Example 27, 5-(4-(((3S,4R)-3-Hydroxy-4-((5-(trifluoromethyl)pyridin-2-yl)amino)piperidin-1-yl)sulfonyl)phenyl)nicotinamide]: the IC50 lay within 1 to 10 nM.
Then `CN(c1ccc(-c2ccc(S(=O)(=O)N3CC[C@@H](Nc4ccc(C(F)(F)F)cn4)[C@@H](O)C3)cc2)cn1)C1CCC1` [Compound 102], with 1 to 10 nM; and `O=C1C[C@H](Nc2cc(-c3ccc(S(=O)(=O)N4CC[C@@H](Nc5ccc(C(F)(F)F)cn5)[C@@H](O)C4)cc3)ccn2)CN1` [Compound 127], with 1 to 10 nM.
As to `Cc1nc2[nH]ccc2cc1-c1ccc(S(=O)(=O)N2CC[C@@H](Nc3ccc(C(F)(F)F)cn3)[C@@H](O)C2)cc1` [Example 17, (3S,4R)-1-((4-(6-methyl-1H-pyrrolo[2,3-b]pyridin-5-yl)phenyl)sulfonyl)-4-((5-(trifluoromethyl)pyridin-2-yl)amino)piperidin-3-ol], the IC50 lay within 1 to 10 nM.
As for `Cc1nnc(-c2cc(-c3ccc(S(=O)(=O)N4CC[C@@H](Nc5ccc(C(F)(F)F)cn5)[C@@H](O)C4)cc3)c(C)cn2)o1` [Compound 213], the figure is < 1 nM; as for `O=C1NCc2cc(-c3ccc(S(=O)(=O)N4CC[C@@H](Nc5ccc(C(F)(F)F)cn5)[C@@H](O)C4)cc3)ccc21` [Example 12, 5-(4-(((3S,4R)-3-hydroxy-4-((5-(trifluoromethyl)pyridin-2-yl)amino)piperidin-1-yl)sulfonyl)phenyl)isoindolin-1-one], < 1 nM; as for `NC(=O)N1Cc2ccc(-c3ccc(S(=O)(=O)N4CC[C@@H](Nc5ccc(C(F)(F)F)cn5)[C@@H](O)C4)cc3)cc2C1` [Example 4, 5-(4-(((3S,4R)-3-hydroxy-4-((5-(trifluoromethyl)pyridin-2-yl)amino)piperidin-1-yl)sulfonyl)phenyl)isoindoline-2-carboxamide], < 1 nM.
As for `Cc1cc(C(F)(F)F)cnc1N[C@@H]1CCN(S(=O)(=O)c2ccc(-c3cnc(C(N)=O)n3C)cc2)C[C@@H]1O` [Compound 83, 5-[4-[[(3S,4R)-3-hydroxy-4-[[3-methyl-5-(trifluoromethyl)-2-pyridyl]amino]-1-piperidyl]sulfonyl]phenyl]-1-methyl-imidazole-2-carboxamide], the IC50 was < 1 nM.
Then `N#Cc1cc(-c2ccc(S(=O)(=O)N3CC[C@@H](Nc4ccc(C(F)(F)F)cn4)[C@@H](O)C3)cc2)cnn1` [Compound 199], with 1 to 10 nM; and `CN(C)[C@H]1C[C@H](Nc2ccc(-c3ccc(S(=O)(=O)N4CC[C@@H](Nc5ccc(C(F)(F)F)cn5)[C@@H](O)C4)cc3)cn2)C1` [Compound 91], with 1 to 10 nM; and `O=S(=O)(c1ccc(-c2ccc(N3CC4(CNC4)C3)nc2)cc1)N1CC[C@@H](Nc2ccc(C(F)(F)F)cn2)[C@@H](O)C1` [Compound 104], with < 1 nM.
As to `N#Cc1ccc(N[C@@H]2CCN(S(=O)(=O)c3ccc(-c4cnc5[nH]cc(C#N)c5c4)cc3)C[C@@H]2O)nc1` [Example 34, 5-[4-[[(3S,4R)-4-[(5-cyano-2-pyridyl)amino]-3-hydroxy-1-piperidyl]sulfonyl]phenyl]-1H-pyrrolo[2,3-b]pyridine-3-carbonitrile], the IC50 was < 1 nM.
As for `NC(=O)c1cccc(-c2ccc(S(=O)(=O)N3CC[C@@H](Nc4ccc(C(F)(F)F)cn4)[C@@H](O)C3)cc2)c1` [Compound 117], the figure is < 1 nM; as for `NC1CCN(c2ccc(-c3ccc(S(=O)(=O)N4CC[C@@H](Nc5ccc(C(F)(F)F)cn5)[C@@H](O)C4)cc3)cn2)CC1` [Compound 106], < 1 nM.
As to `O=C1C[C@@H](Nc2ccc(-c3ccc(S(=O)(=O)N4CC[C@@H](Nc5ccc(C(F)(F)F)cn5)[C@@H](O)C4)cc3)cn2)CN1` [Compound 168], the IC50 was < 1 nM.
